The record followed here is ChEMBL document CHEMBL3046172, “Synthesis and Insecticidal Activity of New 2- and 6-Substituted 4-Acetoxyquinolines” (1997).

SMILES strings stand for the structures.

Type in all cases: functional
Experiment [1] has as its system Bombyx mori. As to the kind of experiment: Insecticidal activity against Bombyx mori Gunpo x Shugyoku third-instar larvae assessed as insect mortality upon topical application at 10 ug measured 48 hr post compound treatment.
In experiment [2] the test system is Bombyx mori. As to the kind of experiment: Insecticidal activity against Bombyx mori Syogetsu x Syunrei third-instar larvae assessed as insect mortality upon topical application at 3 ug measured 48 hr post compound treatment.
The subject of experiment [3] is Bombyx mori. Kind of experiment: Insecticidal activity against Bombyx mori Syogetsu x Syunrei third-instar larvae assessed as insect mortality upon topical application at 1 ug measured 48 hr post compound treatment.
Experiment [4] has as its system Bombyx mori. As to the kind of experiment: Insecticidal activity against Bombyx mori Syogetsu x Syunrei third-instar larvae assessed as insect mortality upon topical application at 10 ug measured 48 hr post compound treatment.
The subject of experiment [5] is Bombyx mori. Kind of experiment: Insecticidal activity against Bombyx mori Syogetsu x Syunrei third-instar larvae assessed as insect mortality upon topical application at 0.3 ug measured 48 hr post compound treatment.
Experiment [6] deals with Plutella xylostella. Kind of experiment: Insecticidal activity against Plutella xylostella (diamondback moth) third-instar larvae reared on cabbage plants leaves pre-treated with 500 ppm compound assessed as insect mortality measured 2 days post compound treatment.
Experiment [7] concerns Plutella xylostella. Kind of experiment: Insecticidal activity against Plutella xylostella (diamondback moth) third-instar larvae reared on cabbage plants leaves pre-treated with 250 ppm compound assessed as insect mortality measured 2 days post compound treatment.
Experiment [8] deals with Plutella xylostella. Kind of experiment: Insecticidal activity against Plutella xylostella (diamondback moth) third-instar larvae reared on cabbage plants leaves pre-treated with 1000 ppm compound assessed as insect mortality measured 2 days post compound treatment.
Experiment [9] deals with Spodoptera litura. As to the kind of experiment: Insecticidal activity against Spodoptera litura third-instar larvae reared on artificial diets of Insecta LF assessed as insect mortality at 125 ppm measured 2 days post compound treatment. The note with it: 48 h.
Experiment [10] concerns Spodoptera litura. As to the kind of experiment: Insecticidal activity against Spodoptera litura third-instar larvae reared on artificial diets of Insecta LF assessed as insect mortality at 250 ppm measured 2 days post compound treatment. Conditions: 48 h.
The subject of experiment [11] is Spodoptera litura. As to the kind of experiment: Insecticidal activity against Spodoptera litura third-instar larvae reared on artificial diets of Insecta LF assessed as insect mortality at 500 ppm measured 2 days post compound treatment. Conditions: 48 h.

Take `C=Cc1nc2ccccc2c(OC(C)=O)c1C`: the mortality (commonly the percentage killed) in the experiment with Bombyx mori [1] is 0%.
For the molecule `CCCCCCc1nc2ccc(F)cc2c(OC(C)=O)c1C`, the mortality came to 60% in the experiment on Bombyx mori [2], 0% in the experiment with Bombyx mori [3] and 75% with Bombyx mori [4].
For `CCc1nc2ccccc2c(OC(C)=O)c1C`, the mortality in the experiment with Bombyx mori [2] turned out to be 100%; in the experiment with Bombyx mori [3], 95%; in the experiment with Bombyx mori [5], 0%.
For the molecule `CCCCCc1nc2ccccc2c(OC(C)=O)c1C`, the mortality with Bombyx mori [2] was 40%; in the experiment with Bombyx mori [3], 0%; in the experiment with Bombyx mori [4], 100%.
With `CCCCc1nc2ccccc2c(OC(C)=O)c1C`, the figures for the mortality in the experiment with Bombyx mori [2] and in the experiment with Bombyx mori [4] were 35% and 95%, respectively.
`CCc1nc2ccc(F)cc2c(OC(C)=O)c1C`: the mortality at 500 ppm in the experiment with Plutella xylostella [6] was 70%; in the experiment with Spodoptera litura [11], 100%. Besides, the mortality at 250 ppm in the experiment on Plutella xylostella [7] came to 42.5%; in the experiment on Spodoptera litura [10] it was 90%. Besides, the mortality in the experiment with Bombyx mori [3] turned out to be 100%; in the experiment on Bombyx mori [5], 70%. Also, the mortality at 1000 ppm in the experiment with Plutella xylostella [8] was found to be 97.5%. Also, the mortality at 125 ppm with Spodoptera litura [9] stood at 55%.
On to `CCCCCCCc1nc2ccccc2c(OC(C)=O)c1C`, for which the mortality with Bombyx mori [2] is reported as 100%; with Bombyx mori [3], 10%; in the experiment on Bombyx mori [4] it was 100%; in the experiment on Bombyx mori [5], 0%.
`C/C=C/c1nc2ccccc2c(OC(C)=O)c1C`: the mortality in the experiment on Bombyx mori [4] was 0%.
With `CCCCCCCCCc1nc2ccccc2c(OC(C)=O)c1C`, the values for the mortality in the experiment with Bombyx mori [2], in the experiment with Bombyx mori [3] and with Bombyx mori [4] were 100%, 15% and 100%, respectively.
Regarding `CCCCCCCCCc1nc2ccc(F)cc2c(OC(C)=O)c1C`, in the experiment on Bombyx mori [4], the mortality is recorded as 10%.
With `CCCCCCC/C=C\c1nc2ccc(F)cc2c(OC(C)=O)c1C`, the mortality with Bombyx mori [2] was 100%; with Bombyx mori [3], 10%; in the experiment with Bombyx mori [4], 100%; in the experiment with Bombyx mori [5], 0%.
For `CC(=O)Oc1c(C)c(C)nc2ccc(F)cc12`, the mortality in the experiment on Bombyx mori [2] was 100%; in the experiment on Bombyx mori [3], 95%; in the experiment with Bombyx mori [5], 0%.
For `CCCCCCC/C=C/c1nc2ccc(F)cc2c(OC(C)=O)c1C`, in the experiment with Bombyx mori [4], the mortality worked out at 0%.
With `CCCCCCc1nc2ccccc2c(OC(C)=O)c1C`, the mortality with Bombyx mori [2] turned out to be 100%; with Bombyx mori [3], 10%; in the experiment on Bombyx mori [4], 100%.
For the molecule `CCCCCCC/C=C/c1nc2ccccc2c(OC(C)=O)c1C`, the mortality is reported as 100% in the experiment on Bombyx mori [2], 76% with Bombyx mori [3] and 70% in the experiment with Bombyx mori [5].
For the molecule `CCCc1nc2ccccc2c(OC(C)=O)c1C`, the mortality in the experiment with Bombyx mori [2] and in the experiment on Bombyx mori [4] was 0% in each case.
As for `CC(=O)Oc1c(C)c(C)nc2ccccc12`, the mortality is recorded as 71% in the experiment with Bombyx mori [2], 0% with Bombyx mori [3] and 100% with Bombyx mori [4].
